Results as given in patent publication US20250066389A1, “HETEROCYCLIC AMIDES AND METHODS OF USING THE SAME” (Rgenta Therapeutics, Inc., priority 2021, published 2025).
pIC50: −log10 of the molar value. Where a name gives a salt, the structure may show the parent alone.

Test system: PMS1
Experiment: Mini-Gene Reporter Assay—PMS1 (firefly luciferase mini-gene reporter transiently transfected into HEK293 cells)
Assay type: cell-based
Settings: Homo sapiens, mini-gene firefly luciferase reporter in HEK293 cells; for activation at 5 µM: read-out: PMS1 % Effect at 5 uM
Source text: Example 76. Mini-Gene Reporter Assay—PMS1
Mini-gene reporter constructs for each target site can be constructed by first PCR amplifying the region-of-interest including the sequence of the alternatively skipped, sequences of the immediate upstream and downstream introns, and sequences of the immediate upstream and downstream exons. Then the 3′ end of the amplified sequence can be ligated to a firefly luciferase reporter gene and cloned into the pcDNA3.1 vector backbone. The final reporter construct can be transiently transfected into HEK293 cells using Lipofectamine 3000 transfection reagents. Compounds that can induce the inclusion of the skipped exon in the reporter construct would increase the reporter firefly luciferase activity.
Test compounds may be diluted in duplicates and dispensed into an assay plate. Transient mini-gene reporter cell line stock is resuspended and dispensed into the assay plate. Assay plates are then centrifuged and incubated. A luciferase reagent (e.g. ONE-Glo firefly luciferase reagent from Promega®) may be added to the assay plate and the luminescence (RLU) signals recorded. EC50 values may be determined by curve fitting in Levenberg-Marquardt algorithm.
In Table D below, A indicates a IC50 (μM)<1 μM, B indicates a IC50 (μM) 1 μM to <10 μM, and C indicates a IC50 (μM) 10 μM to <50 μM. In Table D below, A indicates a >75% Effect at 5 μM μM. B indicates a 50 to <75% Effect at 5 μM μM, and C indicates a <50% Effect at 5 μM.

pIC50 | Structure (SMILES) | activation at 5 µM [%]
 | CCOc1cc2nn(C)cc2cc1C(=O)Nc1cnc(NCCC2CC3CCC(C2)N3)cn1 (centres unmarked) [Compound 310] | < 50
 | CCOc1cn2nc(C)cc2cc1C(=O)Nc1cnc(NCC2(F)CNCCOC2)cn1 (centres unmarked) [Compound 489] | < 50
 | CCOc1cc2nn(C)cc2cc1C(=O)Nc1cnc(NC(C)CC2CC3CCC(C2)N3)cn1 (centres unmarked) [Compound 311] | < 50
 | CCOc1cc2nn(C)cc2cc1C(=O)Nc1ccc(N2CCN[C@H](C)C2)nn1 [Compound 750, (R)-6-ethoxy-2-methyl-N-(6-(3-methylpiperazin-1-yl)pyridazin-3-yl)-2H-indazole-5-carboxamide hydrochloride] | > 75
> 6.00 | CNC1CCN(c2ccc(NC(=O)c3cn4cc(C)nc4cc3OC)c(F)c2)C1 (centres unmarked) [Compound 176, N-(2-fluoro-4-(3-(methylamino)pyrrolidin-1-yl)phenyl)-7-methoxy-2-methylimidazo[1,2-a]pyridine-6-carboxamide] | 
 | CCOc1cc2nc(C)cn2cc1C(=O)Nc1cnc(N2CC(O)(CNC)C2)cn1 [Compound 662] | > 75
 | CCOc1cc2nn(C)cc2cc1C(=O)Nc1cnc(N[C@@H]2CNC[C@@H](F)C2)cn1 [Compound 307] | 50 to 75
 | CCOc1cn2nc(C)cc2cc1C(=O)Nc1cnc(N2CCOC3(CCCNC3)C2)nc1 (centres unmarked) [Compound 613] | < 50
 | CCOc1cn2nc(C)cc2cc1C(=O)Nc1cnc(N2CCOC3(CCCNC3)C2)cn1 (centres unmarked) [Compound 510] | < 50
 | CCOc1cn2nc(C)cc2cc1C(=O)Nc1cnc(N2CCCC(CCC3CCCNC3)C2)nc1 (centres unmarked) [Compound 603] | < 50
> 6.00 | COc1cc2nc(C)cn2cc1C(=O)Nc1ccc(N2C[C@H]3CNCC[C@H]3C2)cc1F [Compound 630] | 
 | CCOc1cc2nc(C)cn2cc1C(=O)Nc1ccc(N2CC(C)NC(CC)C2)nn1 (centres unmarked) [Compound 758, 7-ethoxy-N-(6-(3-ethyl-5-methylpiperazin-1-yl)pyridazin-3-yl)-2-methylimidazo[1,2-a]pyridine-6-carboxamide] | > 75
 | CCOc1cc2nn(C)cc2cc1C(=O)Nc1cnc(N2CCC(N)(c3cccc(F)c3)C2)nc1 (centres unmarked) [Compound 418] | < 50
 | CCOc1cc2nc(C)cn2cc1C(=O)Nc1cnc(NCC2CCNC23CCC3)cn1 (centres unmarked) [Compound 659] | > 75
 | CCOc1cc2nn(C)cc2cc1C(=O)Nc1cnc(N2CCC(NC)C2)nc1 (centres unmarked) [Compound 463] | > 75
 | CCOc1cc2nn(C)cc2cc1C(=O)Nc1cnc(NC[C@H]2C[C@@](F)(CN)C2)nc1 [Compound 391] | < 50
 | COc1cc2nc(C)cn2cc1C(=O)Nc1ccc(N2CCC3CC2CN3)cc1F (centres unmarked) [Compound 170, N-(4-(2,6-diazabicyclo[3.2.1]octan-2-yl)-2-fluorophenyl)-7-methoxy-2-methylimidazo[1,2-a]pyridine-6-carboxamide] | > 75
5.00 to 6.00 | CCOc1cc2nc(C)cn2cc1C(=O)Nc1ccc(N2CC3(CCNC3)C2)nn1 [Compound 267] | 
5.00 to 6.00 | CCOc1cc2nc(C)cn2cc1C(=O)Nc1ccc(N2CCC(C3CCCN3)C2)nn1 (centres unmarked) [Compound 233] | 
 | CCOc1cn2nc(C)cc2cc1C(=O)Nc1cnc(NCC2CNC(C)C2)nc1 (centres unmarked) [Compound 566] | < 50
 | CCOc1cc2nn(C)cc2cc1C(=O)Nc1cnc(N2CCCC(CCN)C2)cn1 (centres unmarked) [Compound 353] | < 50
5.00 to 6.00 | CCOc1nc2nc(C)cn2cc1C(=O)Nc1ccc(N2CCN(C)CC2)nn1 [Compound 731, 7-ethoxy-2-methyl-N-(6-(4-methylpiperazin-1-yl)pyridazin-3-yl)imidazo[1,2-a]pyrimidine-6-carboxamide formic acid] | 
 | CCOc1cc2nn(C)cc2cc1C(=O)Nc1cnc(N2C[C@H]3CNC[C@H]3C2)nc1 [Compound 464] | 50 to 75
 | CCOc1cc2nn(C)cc2cc1C(=O)Nc1cnc(NCc2ccccc2N2CCNCC2)nc1 [Compound 451] | < 50
 | CCOc1cc2nc(C)cn2cc1C(=O)Nc1cnc(N2CCCC(NC)C2)cn1 (centres unmarked) [Compound 690] | 50 to 75
> 6.00 | CCOc1cc2nc(C)cn2cc1C(=O)Nc1ccc(N2CCN[C@@H](C(C)C)C2)nn1 [Compound 276] | 
 | CCOc1cc2nn(C)cc2cc1C(=O)Nc1cnc(NCCNC)nc1 [Compound 472] | < 50
 | CCOc1cc2nn(C)cc2cc1C(=O)Nc1cnc(N2CCCNCC2C)cn1 (centres unmarked) [Compound 351] | < 50

pIC50 | Structure (SMILES) | activation at 5 µM [%]
 | CCOc1cc2nc(C)cn2cc1C(=O)Nc1cnc(N2CC(C)NCC2C)nc1 (centres unmarked) [Compound 644] | 50 to 75
 | CCOc1cc2nn(C)cc2cc1C(=O)Nc1cnc(N2CCCC(NC)C2)nc1 (centres unmarked) [Compound 466] | < 50
 | CCOc1cc2nn(C)cc2cc1C(=O)Nc1cnc(NCc2ccc(CN3CCNCC3)cc2)cn1 [Compound 334] | < 50
 | CCOc1cc2nn(C)cc2cc1C(=O)Nc1cnc(NCC2CNCCO2)cn1 (centres unmarked) [Compound 354] | < 50
 | COc1cc2nc(C)cn2cc1C(=O)Nc1ccc(N2CCC3(CCNC3)CC2)cc1F [Compound 135, N-(2-fluoro-4-(2,8-diazaspiro[4.5]decan-8-yl)phenyl)-7-methoxy-2-methylimidazo[1,2-a]pyridine-6-carboxamide] | < 50
 | COc1cc2nc(C)cn2cc1C(=O)Nc1ccc(N2C3CCCC2CNC3)cc1F [Compound 140, N-(4-(3,9-diazabicyclo[3.3.1]nonan-9-yl)-2-fluorophenyl)-7-methoxy-2-methylimidazo[1,2-a]pyridine-6-carboxamide] | > 75
 | CCOc1cc2nn(C)cc2cc1C(=O)Nc1cnc(N2CCC3(CCCN3)CC2)nc1 [Compound 442] | > 75
 | CCOc1cn2nc(C)cc2cc1C(=O)Nc1cnc(N2CC(N3CCNCC3)C2)cn1 [Compound 541] | < 50
 | CCOc1cc2nn(C)cc2cc1C(=O)Nc1cnc(NCC2CCNCC2C)nc1 (centres unmarked) [Compound 434] | < 50
 | COCCNC1CCN(c2ccc(NC(=O)c3cn4cc(C)nc4cc3OC)c(F)c2)CC1 [Compound 137, N-(2-fluoro-4-(4-((2-methoxyethyl)amino)piperidin-1-yl)phenyl)-7-methoxy-2-methylimidazo[1,2-a]pyridine-6-carboxamide] | 50 to 75
 | CCOc1cc2nc(C)cn2cc1C(=O)Nc1cnc(N2CC(C3CNC3)C2)cn1 [Compound 664] | > 75
 | COc1cc2nc(C)cn2cc1C(=O)Nc1ccc(N2CCNCC3(CC3)C2)cc1F [Compound 139, N-(2-fluoro-4-(5,8-diazaspiro[2.6]nonan-5-yl)phenyl)-7-methoxy-2-methylimidazo[1,2-a]pyridine-6-carboxamide] | > 75
 | CCOc1cc2nn(C)cc2cc1C(=O)Nc1cnc(N2CCC(n3ncc4c3CNC4)CC2)nc1 [Compound 414] | < 50
5.00 to 6.00 | COc1cc2nc(C)cn2cc1C(=O)Nc1cnc(N2CCNCC2)nc1 [Compound 120, 7-methoxy-2-methyl-N-(2-(piperazin-1-yl)pyrimidin-5-yl)imidazo[1,2-a]pyridine-6-carboxamide] | 
> 6.00 | COc1cc2nc(C)cn2cc1C(=O)Nc1ccc(N2CCNC(C)C2C)cc1F (centres unmarked) [Compound 157, N-(4-(2,3-dimethylpiperazin-1-yl)-2-fluorophenyl)-7-methoxy-2-methylimidazo[1,2-a]pyridine-6-carboxamide] | 
 | CCOc1cn2nc(C)cc2cc1C(=O)Nc1cnc(N2CC(NC)C3(CC3)C2)nc1 (centres unmarked) [Compound 612] | < 50
> 6.00 | CCOc1cc2nc(C)cn2cc1C(=O)Nc1ccc(N2CCNC3(CC3)C2)nn1 [Compound 210, N-(6-4,7-diazaspiro[2.5]octan-7-ylpyridazin-3-yl)-7-ethoxy-2-methylimidazo[1,2-a]pyridine-6-carboxamide] | 
 | CCOc1cc2nn(C)cc2cc1C(=O)Nc1cnc(N2CCNCC3(CC3)C2)cn1 [Compound 305] | > 75
 | CCOc1cc2nc(C)cn2cc1C(=O)Nc1cnc(N2CCNCC2C)cn1 (centres unmarked) [Compound 697] | > 75
 | CCOc1cc2nn(C)cc2cc1C(=O)Nc1cnc(NC2CNCC23CC3)nc1 (centres unmarked) [Compound 397] | < 50
 | CCOc1cc2nn(C)cc2cc1C(=O)Nc1cnc(N2C[C@@H](F)C[C@H]2CNC)nc1 [Compound 440] | < 50
 | CCOc1cc2nn(C)cc2cc1C(=O)Nc1cnc(N2CCC(NC)CC2)nc1 [Compound 473] | < 50
> 6.00 | CCOc1cc2nn(C)cc2cc1C(=O)Nc1ccc(N2CCNC(C)(C)C2)nn1 [Compound 220, N-(6-(3,3-dimethylpiperazin-1-yl)pyridazin-3-yl)-6-ethoxy-2-methyl-2H-indazole-5-carboxamide hydrochloride] | 
 | CCOc1cc2nn(C)cc2cc1C(=O)Nc1cnc(NCC2NCCc3sccc32)nc1 (centres unmarked) [Compound 423] | < 50
 | CCOc1cc2nn(C)cc2cc1C(=O)Nc1cnc(NCC(N)c2ccc(F)cc2)nc1 (centres unmarked) [Compound 419] | < 50
 | CCOc1cc2nc(C)cn2cc1C(=O)Nc1cnc(N2CCC3(CCNCC3)C2)cn1 [Compound 685] | 50 to 75
 | CCOc1cn2nc(C)cc2cc1C(=O)Nc1cnc(N2CCC(N)(CC)CC2)cn1 [Compound 502] | > 75

Structure (SMILES) | pIC50 | activation at 5 µM [%]
CCOc1cc2nc(C)cn2cc1C(=O)Nc1ccc(N2CC3CCCC(C2)N3)nn1 [Compound 255] | > 6.00 | 
